Data taken from US10034462B2, “Animal model of nash-induced hepatocellular carcinoma and methods for developing specific therapeutics” (THE REGENTS OF THE UNIVERSITY OF CALIFORNIA, priority 2015, dated 2018).

Tested on: LFD or HFD-fed WT mice
Test: Tunicamycin-induced ER stress and liver damage in LFD- or HFD-fed WT mice
Assay type: in vivo, mouse
Source text: FIGS. 10A-10J are pictorial and graphical diagrams showing that ER stress is sustained by HFD in MUP-uPA mice. […] Arrows indicate dilated ER (scale bar=1 μm). […] Representative images of livers and H&E (FIG. 10D) and TUNEL (FIG. 10E) staining of liver sections prepared 36 hrs later (scale bar=100 μm). […] Data are means±S.D. (n=3-4 per group). […] All bar graphs represent means±S.D. n=3 per group). *p<0.05.
Although the mechanism responsible for hepatocyte death in young MUP-uPA mice is not entirely clear, their hepatocytes are ER stressed (Sandgren et al., 1991). Indeed, several ER stress markers, including CHOP, GRP78, spliced XBP1 (sXBP1), phosphorylated (p) eIF2α, p-IRE1α and p-JNK, were elevated in 5 weeks old MUP-uPA mice compared with WT (FIGS. 3A and 10A). While most markers declined in 16 week old MUP-uPA mice, paralleling the decline in uPA expression, HFD-fed MUP-uPA mice maintained strong eIF2α and JNK phosphorylation and CHOP expression, (FIGS. 3B and 10A). In WT mice, HFD feeding induced only a slight elevation in p-eIF2α and CHOP mRNA with no effect on CHOP protein (FIG. 3B). Immunohistochemistry (IHC) confirmed nuclear CHOP in hepatocytes of 5 weeks old MUP-uPA mice, which was sustained at 16 weeks of age only in HFD-fed MUP-uPA mice (FIG. 3C). […] After 24 weeks of HFD, expression of the […] ligand TRAIL was also elevated in the MUP-uPA liver. […] Thus, whereas ER stress appears to be induced by uPA expression in 5 weeks old MUP-uPA mice, it declines due to transgene extinction. However, feeding these mice with HFD re-kindles the stress response and induces several cell death mediators that are not expressed in HFD-fed WT mice. To determine whether ER stress can cause ballooning degeneration and hepatocyte death, we injected HFD-fed WT mice with the protein glycosylation inhibitor and ER stress elicitor tunicamycin. This treatment led to rapid (36 hrs) induction of ballooning degeneration, hepatocyte apoptosis and ALT release only in HFD-fed mice (FIGS. 10D-10F).

[1] = HFD-fed WT mice, 1.25 mg/kg i.p., 36 hrs, only in HFD-fed mice

For tunicamycin, the “liver steatosis (gross appearance of liver)” value (HFD-fed WT mice, 1.25 mg/kg i.p., 36 hrs) was “more steatotic”, the “ALT release (serum ALT)” value [1] was “induction” and the ballooning degeneration [1] was “induction”. The “hepatocyte apoptosis (TUNEL)” value [1] was “induction” and the “liver damage by tunicamycin alone” value (short term, by itself (without HFD)) was “did not damage the liver”.
